Test results published in ChEMBL document CHEMBL4229544, “Design, synthesis and antibacterial properties of pyrimido[4,5-b]indol-8-amine inhibitors of DNA gyrase” (Bioorg Med Chem Lett, 2018).
≈ marks a conversion by molar mass, not a printed value.

Tests used:
Type in all cases: functional
[1] = tested on: Mycobacterium tuberculosis; assay: Antitubercular activity against fluoroquinolone-resistant Mycobacterium tuberculosis H37Rv harboring gyrA D94N mutant
[2] = tested on: Mycobacterium tuberculosis; assay: Antitubercular activity against isoniazid-resistant Mycobacterium tuberculosis H37Rv harboring katG Y155 mutant
[3] = tested on: Mycobacterium tuberculosis; assay: Antitubercular activity against rifampicin-resistant Mycobacterium tuberculosis H37Rv harboring RpoB S522L mutant

`CNc1cc(F)cc2c1[nH]c1nc(CNC(=O)c3cocn3)nc(N3CCC(N)C3)c12` (stereo not drawn) showed an MIC [1] of 0.014 µg/mL (≈ 0.033 µM), an MIC [2] of 0.013 µg/mL (≈ 0.0306 µM) and an MIC [3] of 0.012 µg/mL (≈ 0.0283 µM).
`CNc1cc(F)cc2c1[nH]c1nc(CNC(=O)c3cnco3)nc(N3CCC(N)C3)c12` (stereo not drawn) gave an MIC [1] of 0.09 µg/mL (≈ 0.212 µM), an MIC [2] of 0.09 µg/mL (≈ 0.212 µM) and an MIC [3] of 0.09 µg/mL (≈ 0.212 µM).
Compound `NNC(=O)c1ccncc1` [ISONIAZID] has an MIC [1] of 0.05 µg/mL (≈ 0.365 µM), an MIC [2] of over 27 µg/mL and an MIC [3] of 0.014 µg/mL (≈ 0.102 µM).
Compound `COc1c(N2C[C@@H]3CCCN[C@@H]3C2)c(F)cc2c(=O)c(C(=O)O)cn(C3CC3)c12` [MOXIFLOXACIN] has an MIC [1] of 3.9 µg/mL (≈ 9.72 µM), an MIC [2] of 0.04 µg/mL (≈ 0.0996 µM) and an MIC [3] of 0.04 µg/mL (≈ 0.0996 µM).
`CO[C@@H]1[C@@H](OC(N)=O)[C@@H](O)[C@H](Oc2ccc3c(O)c(NC(=O)c4ccc(O)c(CC=C(C)C)c4)c(=O)oc3c2C)OC1(C)C` [NOVOBIOCIN] was tested, and the MIC [1] was 7.35 µg/mL (≈ 12 µM), the MIC [2] was 6.7 µg/mL (≈ 10.9 µM) and the MIC [3] was 13.5 µg/mL (≈ 22 µM).
`CO[C@H]1/C=C/O[C@@]2(C)Oc3c(C)c(O)c4c(O)c(c(/C=N/N5CCN(C)CC5)c(O)c4c3C2=O)NC(=O)/C(C)=C\C=C\[C@H](C)[C@H](O)[C@@H](C)[C@@H](O)[C@@H](C)[C@H](OC(C)=O)[C@@H]1C` [RIFAMPIN] was tested, and the MIC [1] was 0.019 µg/mL (≈ 0.0231 µM), the MIC [2] was 0.013 µg/mL (≈ 0.0158 µM) and the MIC [3] was 3 µg/mL (≈ 3.65 µM).
